Among the data in ChEMBL document CHEMBL3352609, “Synthesis of new 1-(4-methane(amino)sulfonylphenyl)-5-(4-substituted-aminomethylphenyl)-3-trifluoromethyl-1H-pyrazoles: a search for novel nitric oxide donor anti-inflammatory agents” (2014) are inhibition in vivo values, retold here.

Common to all, as to type: functional
Assay [1] relates to Rattus norvegicus. Description: Anti-inflammatory activity in carrageenan-induced rat foot paw edema model assessed as reduction in paw volume at 20 mg/kg dosed 30 mins before carrageenan injection and measured 3 hrs after carrageenan challenge.
Assay [2] deals with Rattus norvegicus. The assay is described as follows: Anti-inflammatory activity in carrageenan-induced rat foot paw edema model assessed as reduction in paw volume at 20 mg/kg dosed 30 mins before carrageenan injection and measured 1 hr after carrageenan challenge.
Assay [3] concerns Rattus norvegicus. The assay is described as follows: Anti-inflammatory activity in carrageenan-induced rat foot paw edema model assessed as reduction in paw volume at 20 mg/kg dosed 30 mins before carrageenan injection and measured 5 hrs after carrageenan challenge.

For `CNCc1ccc(-c2cc(C(F)(F)F)nn2-c2ccc(S(N)(=O)=O)cc2)cc1`, the values for the inhibition in vivo at 20 mg/kg in assay [1], in assay [2] and in assay [3] were 69%, 54% and 57%, respectively.

For `CCN(Cc1ccc(-c2cc(C(F)(F)F)nn2-c2ccc(S(C)(=O)=O)cc2)cc1)N=O`, the results for the inhibition in vivo at 20 mg/kg in assay [1], in assay [2] and in assay [3] were 39%, 24% and 25%, respectively.

For the compound `CNCc1ccc(-c2cc(C(F)(F)F)nn2-c2ccc(S(C)(=O)=O)cc2)cc1`, the inhibition in vivo at 20 mg/kg in assay [1] stood at 89%; in assay [2] it was 72%; in assay [3] it was 67%.

With `CCNCc1ccc(-c2cc(C(F)(F)F)nn2-c2ccc(S(N)(=O)=O)cc2)cc1`, the figures for the inhibition in vivo at 20 mg/kg in assay [1], in assay [2] and in assay [3] were 71%, 53% and 39%, respectively.

`CS(=O)(=O)c1ccc(-n2nc(C(F)(F)F)cc2-c2ccc(CN3CCNCC3)cc2)cc1`: the inhibition in vivo at 20 mg/kg is 73% in assay [1], 67% in assay [2] and 66% in assay [3].

Regarding `Cc1ccc(-c2cc(C(F)(F)F)nn2-c2ccc(S(N)(=O)=O)cc2)cc1` [CELECOXIB], the inhibition in vivo at 20 mg/kg in assay [1] worked out at 80%; in assay [2] it was 40%; in assay [3], 48%.

`CS(=O)(=O)c1ccc(-n2nc(C(F)(F)F)cc2-c2ccc(CN3CCN(N=O)CC3)cc2)cc1`: the inhibition in vivo at 20 mg/kg in assay [1] is 43%; in assay [2] it was 19%; in assay [3], 29%.

For `CCNCc1ccc(-c2cc(C(F)(F)F)nn2-c2ccc(S(C)(=O)=O)cc2)cc1`, the inhibition in vivo at 20 mg/kg is 72% in assay [1], 66% in assay [2] and 66% in assay [3].

As to `NS(=O)(=O)c1ccc(-n2nc(C(F)(F)F)cc2-c2ccc(CN3CCNCC3)cc2)cc1`, the inhibition in vivo at 20 mg/kg was 70% in assay [1], 58% in assay [2] and 35% in assay [3].
